# Tested on: HaCaT cells
# Assay: Measurement of mitochondrial activity by IN Cell Analyzer 2200 in HaCaT cells
# Type: cell-based, human
# Details: HaCaT cells treated with ceramides 48 hours, 5 μM, FIG. 1
# Description: A human epidermal keratinocyte cell line, i.e., HaCaT cells, was used as a human skin cell model. The cells were subcultured in a cell culture dish (Greiner Bio-One Co., Ltd., Tokyo, Japan) at 37° C. in the presence of 5% CO2 by using DMEM medium (Dulbecco's Modified Eagle Medium, Nissui, Tokyo, Japan) containing 10% inactivated fetal bovine serum (FBS, Life Technologies Corporation, CA, USA). […]
# HaCaT cells were seeded in a 96-well plate at a density of 6.0×10^4 cells/mL and precultured for 24 hours. […] Thereafter, the diluted Hoechst […] solution was removed from the 96-well plate, […] of PBS was added, and the fluorescence was detected using an IN Cell Analyzer 2200 (GE Healthcare). By measuring the amounts of fluorescence of MitoTracker Red, MitoTracker Green, and Hoechst 33342, the mitochondrial activity, number, and area in the cells were examined. The images were analyzed using IN Cell Investigator High-content image analysis software (GE Healthcare).
# The mitochondrial number and area (MitoTracker Green), as well as the mitochondrial membrane potential activity (MitoTracker Red), per cell were measured using an IN Cell Analyzer 2200 in HaCaT cells treated with ceramides for 48 hours.
smiles,measurement,value
"CCCCCCCCCCCCCCCCCC(=O)N[C@@H](CO)[C@H](O)CCCCCCCCCCCCCCC [synthetic ceramide, ceramide NG]",mitochondrial number per cell (MitoTracker Green),significantly increased
